Where two headings read alike, the source gives them in different places.
What was measured:
PARP1 [1] = target: T1, PARP1 (Homo sapiens, UniProt P09874); conditions: cited from earlier work
T1 construct: purchased BPS Bioscience (San Diego, CA)

PARP2 [2] = target: T2, PARP2 (Homo sapiens, UniProt Q9UGN5); conditions: cited from earlier work; for selectivity index (SI): PARP2 selectivity
T2 construct: purchased BPS Bioscience (San Diego, CA)

[3] = Plasma stability determination; type: in vitro ADME, human; conditions: 4 h, 37 °C, 10 μM
Protocol: Determination of stability in human blood plasma was carried out using pooled human blood plasma obtained from ten healthy donors. The candidate stock solution (10 mM in DMSO) was diluted with the pooled blood plasma to a concentration of 10 μM (test solution). The test solution was kept in a solid-state thermostat for 4 h at a temperature of 37 °C. HPLC method using an Agilent 1260 chromatograph (Agilent, USA) was employed to determine the peak area of the compounds in the test samples corresponding to the initial test time (before exposure) and the final test time (after incubation in a solid-state thermostat for 4 h at 37 °C) with preliminary precipitation of protein mass with acetonitrile (300 μL MeCN per 100 μL of the reaction mixture). After stopping the reaction, the samples were centrifuged for 10 min at 10,000 rpm and the supernatant was collected. Chromatographic analysis was performed in a gradient elution mode at a flow rate of 1 ml/min.

PARP2 [4] = target: T2, PARP2; assay: PARP2 colorimetric activity assay kit (BPS Bioscience); type: biochemical; conditions: for IC50: dose-response, mean (n = 3) ± SD, r^2 in brackets
Protocol: (§1) The thirty-six 1-oxo-3,4-dihydroisoquinoline-4-carboxamides 3a-aj and 1-oxoisoquinoline-4-carboxamide 11 were tested for inhibitory activity towards PARP1 and PARP2 using the commercially available colorimetric activity assay kit from BPS Bioscience (San Diego, CA) in full accordance of the supplier’s method description[13]^,[14]. The initial screening was performed against PARP1 at 1 µM concentration of each compound, in triplicate (n = 3) measurements.

[5] = Stability in human liver S9 fraction; type: in vitro ADME; conditions: human liver S9 0.5 mg/mL, 10 μM compound, 37 °C; intrinsic clearance
Protocol: (§2) The rate of enzymatic degradation of the compound in liver microsomes was determined by incubating a mixture containing 0.5 mg/mL of pooled human liver microsomes (XenoTech, USA, cat. # H2620), 10 μM of compound tested, 2 mM β-nicotinamide adenine dinucleotide (Carbosynth, UK, cat. # NN10871) and 4 mM magnesium chloride in 0.1 M sodium phosphate buffer (pH 7.4) in a solid-state thermostat at 37 °C. The rate of enzymatic degradation of the compound in human liver S9 fraction was determined by incubating a reaction mixture containing 0.5 mg/mL of pooled S9 human liver fractions (XenoTech, USA, cat # H0610), 10 μM of compound tested, 2 mM β-nicotinamide adenine dinucleotide (Carbosynth, UK, cat # NN10871) and 4 mM magnesium chloride in 0.1 M sodium phosphate buffer (pH 7.4) in a solid-state thermostat at 37 °C. The reaction was stopped with acetonitrile (100 μL MeCN per 100 μL of the reaction mixture). After stopping the reaction, the samples were centrifuged for 10 min at 10,000 rpm. The supernatant was analysed by chromatography using an Agilent 1260 chromatograph (Agilent, United States). Chromatographic analysis was performed in a gradient elution mode at a flow rate of 1 ml/min. A graph of the dependence of the logarithm of the area of the peak of the substance on time was built. The dependent coefficient of this straight line corresponded to the elimination constant k, on the basis of which the half-life of the drug (T1/2) and intrinsic clearance (Clint) were calculated.

[6] = Aqueous PBS solubility determination; type: physicochemical; conditions: sodium phosphate buffer, kinetic from dmso stock, pH 7.4 0.01 M phosphate buffer solution, 37 °C
Protocol: The stock solution of the compound tested in DMSO (10 mM) was diluted with 0.01 M sodium phosphate buffer solution (pH 7.4) to the concentration of 100 µM, 80 µM, 60 µM, 50 µM, 40 µM, 30 µM, 20 µM and 10 µM. The serially diluted solutions were transferred into a 96-well plate (Corning 3635, UV Plate) and the plate was incubated at 37 °C for 2 h using BioSan PST-60HL-4 thermo shaker. The plate was read at the wavelength of 620 nm using spectrophotometric microplate reader Sunrise (Tecan, Australia). The optical density values were plotted against compound concentration and approximated by a linear relationship to determine the aqueous solubility.

PARP1 [7] = target: T1, PARP1; assay: PARP1 colorimetric activity assay kit (BPS Bioscience); type: biochemical; conditions: for IC50: dose-response, mean (n = 3) ± SD, r^2 in brackets; for inhibition at 1 µM: read-out: PARP1 % inhibition at 1 µM, 1 µM compound, triplicate (n = 3)
Protocol: as §1

[8] = Stability in human liver microsomes; type: in vitro ADME; conditions: HLM 0.5 mg/mL, 10 μM compound, 37 °C; intrinsic clearance
Protocol: as §2

[9] = Plasma protein binding determination (RED dialysis); type: in vitro ADME; conditions: pooled human blood plasma, 37 °C, read-out: plasma protein binding (% bound) (converted)
Protocol: Determination of binding to human blood plasma proteins was carried out using pooled human blood plasma obtained from ten healthy donors. Determination was performed using Thermo Scientific ™ Single-RED dialysis plates. Test solutions of the candidate (10 mM in DMSO) were prepared in blood plasma and in 0.01 M sodium phosphate buffer by dilution in pooled blood plasma to a concentration of 10 μM (test solution 1) and in buffer to a concentration of 10 μM (test solution 2), respectively. The test solutions were transferred to the chambers of the dialysis plate, incubated in an Environmental Shaker – Incubator ES-20/60 (Biosan, Latvia) for 4 h at a temperature of 37 °C at a speed of 130–250 rpm. During the incubation, passive diffusion of the unbound compound occurs, and after 4 h, equilibrium is reached between the chambers with plasma with buffer solution. At the end of the incubation time, samples were taken from the chambers of the plate. HPLC analysis performed using an Agilent 1260 chromatograph (Agilent, USA) allowed determination of the peak area of the compounds in the test samples with preliminary precipitation of proteins with acetonitrile (300 µL of acetonitrile per 100 µL of the reaction mixture). After stopping the reaction, the samples were centrifuged for 10 min at 10,000 rpm and the supernatant was collected.
The concentration of the test compound in the buffer and plasma chambers was calculated using the formula: С=At=4/At=0×10, where At=0 is the value of the peak area of the candidate's test solution on the chromatogram at the initial moment of time;
The % unbound compound was calculated using the formula: %Free=C1/C2×100, where C1 is the concentration value in the buffer chamber;

T1 sequence (P09874 whole entry): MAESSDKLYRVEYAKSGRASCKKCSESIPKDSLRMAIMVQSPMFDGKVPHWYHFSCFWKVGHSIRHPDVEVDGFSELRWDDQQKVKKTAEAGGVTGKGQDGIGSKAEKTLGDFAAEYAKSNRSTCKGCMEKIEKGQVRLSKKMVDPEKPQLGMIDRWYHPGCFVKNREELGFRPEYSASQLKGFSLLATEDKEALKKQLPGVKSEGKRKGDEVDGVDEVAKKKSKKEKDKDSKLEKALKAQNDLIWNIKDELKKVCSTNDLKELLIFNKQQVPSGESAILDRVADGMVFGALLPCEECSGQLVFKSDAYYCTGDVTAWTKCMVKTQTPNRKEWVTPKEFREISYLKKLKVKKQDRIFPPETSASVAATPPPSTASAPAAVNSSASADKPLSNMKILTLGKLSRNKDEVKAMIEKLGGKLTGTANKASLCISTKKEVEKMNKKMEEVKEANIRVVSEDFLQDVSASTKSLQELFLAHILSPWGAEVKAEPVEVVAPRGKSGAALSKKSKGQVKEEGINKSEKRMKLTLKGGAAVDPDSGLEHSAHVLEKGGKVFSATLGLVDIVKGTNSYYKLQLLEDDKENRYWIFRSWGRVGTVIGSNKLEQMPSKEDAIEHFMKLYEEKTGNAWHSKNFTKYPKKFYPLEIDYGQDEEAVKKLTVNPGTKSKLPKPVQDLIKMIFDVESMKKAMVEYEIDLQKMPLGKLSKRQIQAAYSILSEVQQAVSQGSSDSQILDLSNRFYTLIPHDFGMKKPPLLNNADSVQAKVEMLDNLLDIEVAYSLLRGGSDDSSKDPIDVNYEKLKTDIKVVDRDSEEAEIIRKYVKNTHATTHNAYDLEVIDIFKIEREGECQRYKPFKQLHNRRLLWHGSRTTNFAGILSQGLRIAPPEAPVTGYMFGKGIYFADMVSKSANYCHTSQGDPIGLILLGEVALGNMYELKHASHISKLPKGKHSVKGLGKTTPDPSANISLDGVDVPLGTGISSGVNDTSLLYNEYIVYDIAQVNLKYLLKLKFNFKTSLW
T2 sequence (Q9UGN5 whole entry): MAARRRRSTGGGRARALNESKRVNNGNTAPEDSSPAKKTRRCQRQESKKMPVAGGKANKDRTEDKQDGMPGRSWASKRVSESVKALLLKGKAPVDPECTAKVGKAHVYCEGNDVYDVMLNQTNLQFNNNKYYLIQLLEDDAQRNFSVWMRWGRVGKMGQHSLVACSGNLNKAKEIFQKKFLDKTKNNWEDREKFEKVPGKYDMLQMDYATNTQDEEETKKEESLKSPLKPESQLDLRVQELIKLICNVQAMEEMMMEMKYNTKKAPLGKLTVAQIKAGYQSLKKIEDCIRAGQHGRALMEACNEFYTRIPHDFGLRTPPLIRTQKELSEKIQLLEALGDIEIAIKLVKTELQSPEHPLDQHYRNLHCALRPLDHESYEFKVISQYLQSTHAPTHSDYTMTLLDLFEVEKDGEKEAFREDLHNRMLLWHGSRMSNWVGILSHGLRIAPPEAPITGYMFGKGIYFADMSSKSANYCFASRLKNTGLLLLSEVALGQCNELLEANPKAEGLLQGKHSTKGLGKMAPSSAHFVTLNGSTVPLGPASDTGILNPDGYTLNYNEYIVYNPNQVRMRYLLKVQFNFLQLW

Row | SMILES | % compound remaining after incubation with human plasma [3] [%] | SI, selectivity index (PARP2 over PARP1) (PARP2 [4]) | IC50 (PARP2 [4]) [nM] | Stability in the presence of hepatic S9 fraction [5] [µL/min/mg] | solubility at 2 h [6] [µM] | IC50 (PARP1 [7]) [nM] | fold better potency compared to 3l (PARP1 [7]; magic fluorine effect, 3aa vs 3l) [fold] | inhibition at 1 µM (PARP1 [7]) [%] | Stability in the presence of human liver microsomes [8] [µL/min/mg] | fraction unbound at 4 h, 10 µM [9] | PARP1 inhibitory potency in words (PARP1 [7]; compared with 3l) | melting point [°C] | IC50 (PARP1 [1]) [nM] | selectivity index (SI) (PARP2 [2]) | IC50 (PARP2 [2]) [nM]
1 | O=C(Oc1cccc2c(=O)[nH]ccc12)c1ccccc1 [Compound 1b] | – | – | – | – | – | – | – | – | – | – | – | – | 9000 | 60.0 | 150
2 | O=C(Nc1cccc2c(=O)[nH]ccc12)c1ccccc1 [Compound 2] | – | – | – | – | – | – | – | – | – | – | – | – | – | – | 1500
3 | O=C(Oc1cccc2c1CCNC2=O)c1ccccc1 [Compound 1a] | – | – | – | – | – | – | – | – | – | – | – | – | 13000 | 16.3 | 800
4 | O=C(c1cc(Cc2n[nH]c(=O)c3ccccc23)ccc1F)N1CCN(C(=O)C2CC2)CC1 [Olaparib, reference compound] | 100 | – | – | 1.1 | > 100 | – | – | – | 15 | 0.098 | – | – | – | – | –

More lines, main results first:

Row | % compound remaining after incubation with human plasma [3] [%] | SI, selectivity index (PARP2 over PARP1) (PARP2 [4]) | IC50 (PARP2 [4]) [nM] | Stability in the presence of hepatic S9 fraction [5] [µL/min/mg] | solubility at 2 h [6] [µM] | IC50 (PARP1 [7]) [nM] | fold better potency compared to 3l (PARP1 [7]; magic fluorine effect, 3aa vs 3l) [fold] | inhibition at 1 µM (PARP1 [7]) [%] | Stability in the presence of human liver microsomes [8] [µL/min/mg] | fraction unbound at 4 h, 10 µM [9] | PARP1 inhibitory potency in words (PARP1 [7]; compared with 3l) | melting point [°C] | SMILES | IC50 (PARP1 [1]) [nM] | selectivity index (SI) (PARP2 [2]) | IC50 (PARP2 [2]) [nM]
5 | 100 | 2.17 | 29.4 ± 4.5 | 0.1 | > 100 | 63.1 ± 5.3 | ~2.5 | 91.8 ± 0.7 | 3.4 | 0.29 | – | – | O=C1NCC(C(=O)N2CCC(N3CCCCC3)CC2)c2ccc(F)cc21 (stereo not shown) [Compound 3aa, 4-([1,4'-Bipiperidine]-1'-carbonyl)-7-fluoro-3,4-dihydroisoquinolin-1(2H)-one] | – | – | –
6 | 92.6 | 2.23 | 70.1 ± 7.6 | 0.3 | > 100 | 156 ± 5.8 | – | 85.2 ± 2.6 | 2.6 | 0.332 | active | – | O=C1NCC(C(=O)N2CCC(N3CCCCC3)CC2)c2ccccc21 (stereo not shown) [Compound 3l, 4-([1,4'-Bipiperidine]-1'-carbonyl)-3,4-dihydroisoquinolin-1(2H)-one] | – | – | –
7 | – | 2.82 | 28.8 ± 4.2 | – | – | 82 ± 6.9 | – | 93.9 ± 0.2 | – | – | – | 171 to 172 | CC1CCN(C2CCN(C(=O)C3CNC(=O)c4cc(F)ccc43)CC2)CC1 (stereo not shown) [Compound 3ab, 7-Fluoro-4–(4-methyl-[1,4'-bipiperidine]-1'-carbonyl)-3,4-dihydroisoquinolin-1(2H)-one] | – | – | –

From PMC8425678, “1-Oxo-3,4-dihydroisoquinoline-4-carboxamides as novel druglike inhibitors of poly(ADP-ribose) polymerase (PARP) with favourable ADME characteristics” (Journal of Enzyme Inhibition and Medicinal Chemistry, 2021)
